Where two headings read alike, the source gives them in different places.
Columns and labels:
WT HIV-1 = assay: microbe, parasite or virus in culture; format: cell-based
[1] = system: recombinant HIV-1 strains with resistance mutations in the protease gene; assay: Cross-resistance profile assay, whole panel of mutant viruses; format: cell-based; details: {}
[2] = beagle, dog, in vivo, po
30N82I88D [3] = system: 30N82I88D; parameters: species or system HIV-1; details: MT-4, 30N82I88D; read-out: Cell-based assay (MT-4) EC50/nM 30N82I88D
48V54V82A [4] = system: 48V54V82A; parameters: species or system HIV-1; details: MT-4, 48V54V82A; read-out: Cell-based assay (MT-4) EC50/nM 48V54V82A
46I50V [5] = system: 46I50V; parameters: species or system HIV-1; details: MT-4, 46I50V; read-out: Cell-based assay (MT-4) EC50/nM 46I50V
[6] = system: wild-type HIV-1 strain IIIB; assay: microbe, parasite or virus in culture; format: cell-based; details: read-out: EC50
[7] = system: mutant HIV-1 with I84V/L90M mutations in the protease gene; format: cell-based; details: MT-4, 84V90M; read-out: Cell-based assay (MT-4) EC50/nM 84V90M
48V54V82S = system: 48V54V82S; parameters: species or system HIV-1; details: MT-4, 48V54V82S; read-out: Cell-based assay (MT-4) EC50/nM 48V54V82S
48V82A90M = system: 48V82A90M; parameters: species or system HIV-1; details: MT-4, 48V82A90M; read-out: Cell-based assay (MT-4) EC50/nM 48V82A90M
[8] = biological target: recombinant HIV-1 protease (Human immunodeficiency virus type 1 group M subtype B, UniProt P04585); assay: biochemical; format: biochemical
84V90M [9] = biological target: T1, 84V90M (Human immunodeficiency virus type 1 group M subtype B, UniProt P04585, I572V/L578M); assay: biochemical; parameters: species or system HIV-1
WT = assay: microbe, parasite or virus in culture; format: cell-based, HIV-1
84V90M [10] = biological target: T1, 84V90M; assay: cell-based; parameters: species or system HIV-1
30N82I88D [11] = assay: microbe, parasite or virus in culture; format: cell-based, HIV-1
48V54V82A [12] = assay: microbe, parasite or virus in culture; format: cell-based, HIV-1; details: MT-4, 48V54V82A; read-out: Cell-based assay (MT-4) EC50 48V54V82A
46I50V [13] = assay: microbe, parasite or virus in culture; format: cell-based, HIV-1; details: MT-4, 46I50V; read-out: Cell-based assay (MT-4) EC50 46I50V
[14] = MT-4, WT, read-out: Cell-based assay (MT-4) EC50/nM WT
[15] = 84V90M enzyme, read-out: Enzymatic assay 84V90M IC50
[16] = MT-4, 84V90M, read-out: Cell-based assay (MT-4) EC50 84V90M
[17] = MT-4, 30N82I88D, read-out: Cell-based assay (MT-4) EC50 30N82I88D

In the case of CC(C)CN(C[C@@H](O)[C@H](Cc1ccccc1)NC(=O)O[C@H]1CCOC1)S(=O)(=O)c1ccc(N)cc1 [Amprenavir], the EC50 (WT HIV-1; Human immunodeficiency virus 1, read-out: EC50 [nM] WT HIV-1) is reported as 20 nM, the “Total No. of Resistant Viruses” value [1] is reported as 4 and the “AUC(2-24 hr) in PBMCs” value [2] is reported as 102,000 nM · hr. The “t1/2” value [2] was 1.7 h and the “t1/2 (hr) in PBMCs” value [2] was 1.7 h.

For O=C1N(Cc2ccccc2)[C@H](Cc2ccccc2)[C@H](O)[C@@H](O)[C@@H](Cc2ccccc2)N1Cc1ccc2[nH]ncc2c1 [drawing 870], the EC50 (WT HIV-1; [14]) was 193 nM, the EC50 (30N82I88D [3]) was 281 nM and the EC50 (48V54V82A [4]) was 705 nM. For the same compound, the EC50 (46I50V [5]) was 772 nM.

Work on CCOC(=O)C(CC)OP(=O)(CCNCc1ccc(C[C@H](NC(=O)O[C@H]2CO[C@H]3OCC[C@H]32)[C@H](O)CN(CC(C)C)S(=O)(=O)c2ccc(OC)cc2)cc1)Oc1ccccc1 (stereo partly shown) [drawing 662 R1=Ph R2=Hba-Et] yielded an EC50 [6] of 50 to 500 nM and a CC50 (MT-2 cells) of 5000 to 50000 nM.

Compound CCOP(=O)(CCNC(=O)Oc1ccc(C[C@@H]2[C@H](O)[C@@H](O)[C@@H](Cc3ccc(OC)cc3)N(Cc3ccc(O)cc3)C(=O)N2Cc2ccc(O)cc2)cc1)OCC [R=OCH3, R1=Ph-pOH, R2=OCONH(CH2)2PO3Et2] has an EC50 [7] of 495 nM, an EC50 (WT HIV-1; [14]) of 33 nM and an EC50 (30N82I88D [3]) of 31 nM. For the same compound, the EC50 (48V54V82S) was 51 nM, the EC50 (48V82A90M) was 55 nM and the EC50 (46I50V [5]) was 223 nM.

Work on CCOC(=O)C(C)OP(=O)(CCCNC(=O)c1cccc(CN2C(=O)N(Cc3ccc4[nH]nc(N)c4c3)[C@H](Cc3ccccc3)[C@H](O)[C@@H](O)[C@H]2Cc2ccccc2)c1)Oc1ccccc1 (stereo partly shown) yielded a Ki ([8]; read-out: Enzymatic assay Ki) of 0.112 nM, an IC50 ([8]; read-out: Enzymatic assay WT IC50) of 1.4 nM and an IC50 (84V90M [9]; [15]) of 6.4 nM. The EC50 (WT; read-out: Cell-based assay (MT-4) EC50 WT) was 603 nM, the EC50 (84V90M [10]; [16]) was 1280 nM and the EC50 (30N82I88D [11]; [17]) was 678 nM. For the same compound, the EC50 (48V54V82A [12]) was 208 nM and the EC50 (46I50V [13]) was 209 nM.

O=C1N(Cc2ccccc2)[C@H](Cc2ccccc2)[C@H](O)[C@@H](O)[C@@H](Cc2ccc(OCP(=O)(OCc3ccccc3)OCc3ccccc3)cc2)N1Cc1ccccc1 showed an EC50 [7] of over 6000 nM, an EC50 (WT HIV-1; [14]) of 1770 nM and an EC50 (30N82I88D [3]) of 3140 nM. For the same compound, the EC50 (48V54V82A [4]) was over 6000 nM.

Nc1n[nH]c2ccc(CN3C(=O)N(Cc4cccc(C(=O)O)c4)[C@H](Cc4ccccc4)[C@H](O)[C@@H](O)[C@H]3Cc3ccccc3)cc12 gave an IC50 (84V90M [9]; [15]) of 27 nM, an EC50 (84V90M [10]; [16]) of over 6000 nM and an EC50 (30N82I88D [11]; [17]) of over 6000 nM.

Nc1cccc(CN2C(=O)N(Cc3cccc(C(=O)O)c3)C(Cc3ccccc3)C(O)C(O)C2Cc2ccccc2)c1 (stereo not shown) gave an IC50 (84V90M [9]) of 299 nM, an EC50 (WT; Human immunodeficiency virus 1, read-out: Cell-based assay (MT-4) EC50 WT) of 2340 nM and an EC50 (84V90M [10]) of over 6000 nM. The EC50 (30N82I88D [11]; Human immunodeficiency virus 1, read-out: Cell-based assay (MT-4) EC50 30N82I88D) was 3360 nM.

O=C1N(Cc2ccccc2)[C@H](Cc2ccccc2)[C@H](O)[C@@H](O)[C@@H](Cc2ccccc2)N1Cc1ccc2[nH]ncc2c1 [drawing 863, reference compound] showed an IC50 (84V90M [9]; [15]) of 43.3 nM and an EC50 (84V90M [10]) of 2310 nM.

In the case of CCOC(=O)C(C)OP(=O)(CCNCc1ccc(C[C@H](NC(=O)O[C@H]2CO[C@H]3OCC[C@H]32)[C@H](O)CN(CC(C)C)S(=O)(=O)c2ccc(OC)cc2)cc1)Oc1ccccc1 (stereo partly shown) [drawing 662 R1=Ph R2=Lac-Et], the EC50 [6] is reported as 50 to 500 nM and the CC50 (MT-2 cells) is reported as over 50000 nM.

CCOP(=O)(COc1ccc(C[C@@H]2[C@H](O)[C@@H](O)[C@@H](Cc3ccccc3)N(Cc3cccc(N)c3)C(=O)N2Cc2cccc(N)c2)cc1)OCC [R=H, R1=Ph-mNH2, R2=OCh2PO3Et2] gave an EC50 [7] of 328 nM, an EC50 (WT HIV-1; [14]) of 65 nM and an EC50 (30N82I88D [3]) of 16 nM. It also gave an EC50 (48V54V82A [4]) of 168 nM, an EC50 (48V54V82S) of 146 nM and an EC50 (46I50V [5]) of 46 nM.

In the case of CCOP(=O)(CCNC(=O)Oc1ccc(C[C@@H]2[C@H](O)[C@@H](O)[C@@H](Cc3ccc(OC)cc3)N(Cc3cccc(N)c3)C(=O)N2Cc2cccc(N)c2)cc1)OCC [R=OCH3, R1=Ph-mNH2, R2=OCONH(CH2)2PO3Et2], the EC50 [7] is reported as 2260 nM, the EC50 (30N82I88D [3]) is reported as 77 nM and the EC50 (48V54V82A [4]) is reported as 262 nM. It also gave an EC50 (48V54V82S) of 214 nM, an EC50 (48V82A90M) of 215 nM and an EC50 (46I50V [5]) of 184 nM.

Source: patent US20060115815A1 (priority 2002, published 2006)
